Among the data in patent publication US9549932B2, “2-(morpholin-4-yl)-1,7-naphthyridines” (BAYER PHARMA AKTIENGESELLSCHAFT, priority 2014, dated 2017) are IC50 values, retold here.

This assay has as its target full-length human ATR protein (Homo sapiens (Human), UniProt Q13535). Briefly: Binding assay ATR (TR-FRET tracer displacement). The settings on record: TR-FRET. Put shortly:
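Full-length human GST-ATR co-purified with ATRIP, pre-complexed 30 min at 22 °C with anti-GST-Tb antibody, then pre-bound with compound 10 min. Tracer A or B added (2 µl of 100 nM solution), 30 min at 22 °C.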
In general terms: Time-resolved FRET reads energy transfer from a long-lived donor to a nearby acceptor.

Where [1] appears, read: tracer A, read-out: ATR binding (tracer A) IC50.

Where two headings read alike, the source gives them in different places.

Sequence of full-length human ATR protein (Q13535 other isoform, or with tags, fused parts or gaps): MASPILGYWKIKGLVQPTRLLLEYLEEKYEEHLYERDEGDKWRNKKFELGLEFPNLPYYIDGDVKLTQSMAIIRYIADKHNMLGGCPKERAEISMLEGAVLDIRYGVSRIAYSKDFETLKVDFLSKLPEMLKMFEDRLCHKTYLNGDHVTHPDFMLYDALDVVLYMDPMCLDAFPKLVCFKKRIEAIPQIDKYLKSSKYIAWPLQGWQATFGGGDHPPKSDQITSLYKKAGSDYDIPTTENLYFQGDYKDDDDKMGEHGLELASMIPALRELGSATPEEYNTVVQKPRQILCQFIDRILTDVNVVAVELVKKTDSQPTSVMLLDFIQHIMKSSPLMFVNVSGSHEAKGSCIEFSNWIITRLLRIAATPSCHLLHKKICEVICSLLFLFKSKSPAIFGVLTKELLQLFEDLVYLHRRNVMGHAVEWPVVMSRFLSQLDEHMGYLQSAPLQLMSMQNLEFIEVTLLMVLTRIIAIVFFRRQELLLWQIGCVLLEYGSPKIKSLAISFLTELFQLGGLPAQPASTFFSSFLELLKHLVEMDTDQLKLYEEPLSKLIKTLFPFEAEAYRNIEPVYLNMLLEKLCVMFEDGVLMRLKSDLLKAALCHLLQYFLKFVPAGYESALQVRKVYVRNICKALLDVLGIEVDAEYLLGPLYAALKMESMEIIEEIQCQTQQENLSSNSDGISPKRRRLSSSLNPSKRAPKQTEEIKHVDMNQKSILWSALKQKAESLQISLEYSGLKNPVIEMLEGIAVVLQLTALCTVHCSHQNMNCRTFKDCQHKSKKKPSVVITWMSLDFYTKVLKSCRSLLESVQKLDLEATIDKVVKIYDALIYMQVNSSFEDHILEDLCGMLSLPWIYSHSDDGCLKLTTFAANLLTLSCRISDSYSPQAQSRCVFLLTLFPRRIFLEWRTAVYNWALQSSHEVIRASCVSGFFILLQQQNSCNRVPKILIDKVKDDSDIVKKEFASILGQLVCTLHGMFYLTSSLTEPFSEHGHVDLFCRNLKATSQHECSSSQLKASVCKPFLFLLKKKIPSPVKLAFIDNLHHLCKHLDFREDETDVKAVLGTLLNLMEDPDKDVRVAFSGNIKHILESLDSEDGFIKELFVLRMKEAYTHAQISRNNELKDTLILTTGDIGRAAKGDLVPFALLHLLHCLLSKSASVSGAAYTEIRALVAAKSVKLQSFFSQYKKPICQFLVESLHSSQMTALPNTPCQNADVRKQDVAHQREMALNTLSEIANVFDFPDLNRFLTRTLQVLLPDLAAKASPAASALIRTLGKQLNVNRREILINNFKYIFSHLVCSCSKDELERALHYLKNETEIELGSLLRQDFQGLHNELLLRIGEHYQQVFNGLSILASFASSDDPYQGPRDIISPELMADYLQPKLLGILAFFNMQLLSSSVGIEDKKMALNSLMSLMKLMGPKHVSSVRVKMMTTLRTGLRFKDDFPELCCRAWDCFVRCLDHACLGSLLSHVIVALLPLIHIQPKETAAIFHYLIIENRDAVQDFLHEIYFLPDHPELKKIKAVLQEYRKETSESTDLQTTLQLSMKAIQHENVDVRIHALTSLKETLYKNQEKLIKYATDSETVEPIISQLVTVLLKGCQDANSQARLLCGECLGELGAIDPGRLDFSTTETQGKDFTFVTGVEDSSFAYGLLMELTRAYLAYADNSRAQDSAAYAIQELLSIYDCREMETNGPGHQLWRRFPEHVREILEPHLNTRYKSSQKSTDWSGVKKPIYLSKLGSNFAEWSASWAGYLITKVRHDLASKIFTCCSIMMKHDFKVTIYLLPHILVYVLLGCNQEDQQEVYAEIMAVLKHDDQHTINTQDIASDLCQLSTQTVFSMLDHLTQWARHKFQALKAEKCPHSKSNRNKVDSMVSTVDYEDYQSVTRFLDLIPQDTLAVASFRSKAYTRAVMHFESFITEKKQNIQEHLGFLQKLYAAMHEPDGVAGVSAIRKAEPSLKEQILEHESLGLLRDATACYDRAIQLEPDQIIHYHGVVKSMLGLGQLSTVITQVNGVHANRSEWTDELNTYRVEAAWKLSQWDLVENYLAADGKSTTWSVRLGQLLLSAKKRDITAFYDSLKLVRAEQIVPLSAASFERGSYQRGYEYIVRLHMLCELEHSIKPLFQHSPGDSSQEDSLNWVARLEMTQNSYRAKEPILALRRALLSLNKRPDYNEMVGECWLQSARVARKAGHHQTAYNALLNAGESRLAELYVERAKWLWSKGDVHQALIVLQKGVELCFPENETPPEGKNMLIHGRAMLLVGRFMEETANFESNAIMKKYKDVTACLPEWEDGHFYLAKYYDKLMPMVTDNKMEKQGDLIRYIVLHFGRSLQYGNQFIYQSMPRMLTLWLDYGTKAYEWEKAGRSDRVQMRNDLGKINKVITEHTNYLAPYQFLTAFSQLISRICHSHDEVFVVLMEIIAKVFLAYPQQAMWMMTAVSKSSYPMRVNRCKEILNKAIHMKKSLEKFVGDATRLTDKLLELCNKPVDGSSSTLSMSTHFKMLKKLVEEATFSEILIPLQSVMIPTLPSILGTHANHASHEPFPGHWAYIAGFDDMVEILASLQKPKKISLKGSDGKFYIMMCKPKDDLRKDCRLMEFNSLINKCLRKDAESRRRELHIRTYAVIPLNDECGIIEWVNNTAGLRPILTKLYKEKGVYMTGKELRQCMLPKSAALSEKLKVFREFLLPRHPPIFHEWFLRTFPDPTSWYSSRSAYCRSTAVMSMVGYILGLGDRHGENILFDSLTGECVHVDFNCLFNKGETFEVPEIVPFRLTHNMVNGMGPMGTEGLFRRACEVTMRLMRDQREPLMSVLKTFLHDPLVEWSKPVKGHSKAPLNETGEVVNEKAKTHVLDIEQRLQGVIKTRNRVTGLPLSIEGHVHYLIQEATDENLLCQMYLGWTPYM
Sequence of full-length human ATR protein (Q8WXE1 other isoform, or with tags, fused parts or gaps partner): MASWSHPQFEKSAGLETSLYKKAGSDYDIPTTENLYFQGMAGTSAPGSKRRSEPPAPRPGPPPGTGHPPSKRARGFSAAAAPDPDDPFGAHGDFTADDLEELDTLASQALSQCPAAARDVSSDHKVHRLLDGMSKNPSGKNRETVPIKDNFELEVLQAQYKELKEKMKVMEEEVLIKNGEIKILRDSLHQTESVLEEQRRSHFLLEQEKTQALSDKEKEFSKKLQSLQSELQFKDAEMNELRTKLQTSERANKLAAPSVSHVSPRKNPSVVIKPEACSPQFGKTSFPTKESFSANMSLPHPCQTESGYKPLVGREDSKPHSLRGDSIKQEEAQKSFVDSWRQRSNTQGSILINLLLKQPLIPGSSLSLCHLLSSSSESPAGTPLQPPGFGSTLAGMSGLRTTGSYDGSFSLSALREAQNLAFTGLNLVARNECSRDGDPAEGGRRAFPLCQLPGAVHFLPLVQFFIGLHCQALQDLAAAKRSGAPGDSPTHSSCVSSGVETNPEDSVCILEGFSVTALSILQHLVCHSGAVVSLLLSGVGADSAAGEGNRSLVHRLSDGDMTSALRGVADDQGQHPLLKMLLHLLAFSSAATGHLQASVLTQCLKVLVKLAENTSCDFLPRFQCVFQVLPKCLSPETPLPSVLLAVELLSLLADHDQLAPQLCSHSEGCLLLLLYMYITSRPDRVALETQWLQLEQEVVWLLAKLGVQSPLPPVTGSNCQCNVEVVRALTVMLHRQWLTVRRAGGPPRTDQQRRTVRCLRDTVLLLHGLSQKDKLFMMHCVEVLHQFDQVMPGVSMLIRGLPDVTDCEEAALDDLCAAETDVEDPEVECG

Regarding `C[C@@H]1COCCN1c1cc(P(C)(C)=O)c2ccnc(-c3ccn[nH]3)c2n1` [Example 142, 4-(dimethylphosphoryl)-2-[(3R)-3-methylmorpholin-4-yl]-8-(1H-pyrazol-5-yl)-1,7-naphthyridine], under setting [1], the IC50 (commonly the concentration that inhibits the measured activity by half) is 44.1 nM.

On to `CCP(=O)(CC)c1cc(N2CCOC[C@H]2C)nc2c(-c3ccn[nH]3)nccc12` [Example 143, 4-(diethylphosphoryl)-2-[(3R)-3-methylmorpholin-4-yl]-8-(1H-pyrazol-5-yl)-1,7-naphthyridine], for which, under setting [1], the IC50 was found to be 27.7 nM.

On to `CCOP(=O)(CC(C)C)c1cc(N2CCOC[C@H]2C)nc2c(-c3ccn[nH]3)nccc12` (stereo partly drawn) [Example 144, Ethyl isobutyl{2-[(3R)-3-methylmorpholin-4-yl]-8-(1H-pyrazol-5-yl)-1,7-naphthyridin-4-yl}phosphinate], for which, under setting [1], the IC50 was 75.1 nM.

`C[C@@H]1COCCN1c1cc(N2CCOCC2)c2ccnc(-c3ccn[nH]3)c2n1` [Example 145, 2-[(3R)-3-methylmorpholin-4-yl]-4-(morpholin-4-yl)-8-(1H-pyrazol-5-yl)-1,7-naphthyridine]: under setting [1], the IC50 amounted to 18.2 nM.

For the compound `CC(C)Cn1nccc1-c1cc(N2CCOC[C@H]2C)nc2c(-c3ccn[nH]3)nccc12` [Example 146, 4-(1-isobutyl-1H-pyrazol-5-yl)-2-[(3R)-3-methylmorpholin-4-yl]-8-(1H-pyrazol-5-yl)-1,7-naphthyridine], the 50% inhibitory concentration (IC50) under setting [1] was found to be 35.7 nM.

As to `C[C@@H]1COCCN1c1cc(-c2cnc(S(C)(=O)=O)c(F)c2)c2ccnc(-c3ccn[nH]3)c2n1` [Example 147, 4-[5-fluoro-6-(methylsulfonyl)pyridin-3-yl]-2-[(3R)-3-methylmorpholin-4-yl]-8-(1H-pyrazol-5-yl)-1,7-naphthyridine], under setting [1], the IC50 amounted to 45.4 nM.

Consider `C[C@@H]1COCCN1c1cc(N2CCOCC2)nc2c(-c3ccn[nH]3)nccc12` [Example 148, 4-[(3R)-3-methylmorpholin-4-yl]-2-(morpholin-4-yl)-8-(1H-pyrazol-5-yl)-1,7-naphthyridine], for which the 50% inhibitory concentration (IC50) under setting [1] came out at 47.9 nM.

Consider `Cc1cn[nH]c1-c1cc(N2CCOC[C@H]2C)nc2c(-c3ccn[nH]3)nccc12` [Example 149, 2-[(3R)-3-methylmorpholin-4-yl]-4-(4-methyl-1H-pyrazol-5-yl)-8-(1H-pyrazol-5-yl)-1,7-naphthyridine], for which the 50% inhibitory concentration (IC50) under setting [1] came to 48.4 nM.

With `C[C@@H]1COCCN1c1cc(-c2cc(S(C)(=O)=O)ccc2F)c2ccnc(-c3ccn[nH]3)c2n1` [Example 150, 4-[2-fluoro-5-(methylsulfonyl)phenyl]-2-[(3R)-3-methylmorpholin-4-yl]-8-(1H-pyrazol-5-yl)-1,7-naphthyridine], under setting [1], the IC50 is 50.3 nM.

Take `CC(C)S(=O)(=O)c1ccc(-c2cc(N3CCOC[C@H]3C)nc3c(-c4ccn[nH]4)nccc23)cc1` [Example 151, 4-[4-(isopropylsulfonyl)phenyl]-2-[(3R)-3-methylmorpholin-4-yl]-8-(1H-pyrazol-5-yl)-1,7-naphthyridine]: the half-inhibitory concentration (IC50) came out at 51.2 nM under setting [1] and 23.2 nM (tracer B, read-out: ATR binding (tracer B) IC50).

Take `C[C@@H]1COCCN1c1cc(-c2cccc(F)n2)c2ccnc(-c3ccn[nH]3)c2n1` [Example 152, 4-(6-fluoropyridin-2-yl)-2-[(3R)-3-methylmorpholin-4-yl]-8-(1H-pyrazol-5-yl)-1,7-naphthyridine]: under setting [1], the IC50 stood at 51.8 nM.

With `CCn1cnc(-c2cc(N3CCOC[C@H]3C)nc3c(-c4ccn[nH]4)nccc23)c1` [Example 153, 4-(1-ethyl-1H-imidazol-4-yl)-2-[(3R)-3-methylmorpholin-4-yl]-8-(1H-pyrazol-5-yl)-1,7-naphthyridine], the half-inhibitory concentration (IC50) under setting [1] is 54.7 nM.

For `C[C@@H]1COCCN1c1cc(N2CCC[C@H]2C(N)=O)c2ccnc(-c3ccn[nH]3)c2n1` [Example 154, 1-{2-[(3R)-3-methylmorpholin-4-yl]-8-(1H-pyrazol-5-yl)-1,7-naphthyridin-4-yl}prolinamide], the IC50 under setting [1] came to 55 nM.

As for `C[C@@H]1COCCN1c1cc(-c2cccnc2N)c2ccnc(-c3ccn[nH]3)c2n1` [Example 155, 3-{2-[(3R)-3-methylmorpholin-4-yl]-8-(1H-pyrazol-5-yl)-1,7-naphthyridin-4-yl}pyridin-2-amine], the IC50 under setting [1] worked out at 63.3 nM.

Consider `C[C@@H]1COCCN1c1cc(-c2ccnn2CC(F)(F)F)c2ccnc(-c3ccn[nH]3)c2n1` [Example 156, 2-[(3R)-3-methylmorpholin-4-yl]-8-(1H-pyrazol-5-yl)-4-[1-(2,2,2-trifluoroethyl)-1H-pyrazol-5-yl]-1,7-naphthyridine], for which the half-maximal inhibitory concentration (IC50) under setting [1] came out at 80.1 nM.

As to `C[C@@H]1COCCN1c1cc(N2CCN(C)C(=O)C2)c2ccnc(-c3ccn[nH]3)c2n1` [Example 157, 1-methyl-4-{2-[(3R)-3-methylmorpholin-4-yl]-8-(1H-pyrazol-5-yl)-1,7-naphthyridin-4-yl}piperazin-2-one], the 50% inhibitory concentration (IC50) under setting [1] amounted to 91.8 nM.

In the case of `C[C@@H]1COCCN1c1cc(-c2ccn(CCF)n2)c2ccnc(-c3ccn[nH]3)c2n1` [Example 158, 4-[1-(2-fluoroethyl)-1H-pyrazol-3-yl]-2-[(3R)-3-methylmorpholin-4-yl]-8-(1H-pyrazol-5-yl)-1,7-naphthyridine], the concentration for half-maximal inhibition (IC50) under setting [1] stood at 13.5 nM.

As for `C[C@@H]1COCCN1c1cc(-c2ccnn2CCF)c2ccnc(-c3ccn[nH]3)c2n1` [Example 159, 4-[1-(2-fluoroethyl)-1H-pyrazol-5-yl]-2-[(3R)-3-methylmorpholin-4-yl]-8-(1H-pyrazol-5-yl)-1,7-naphthyridine], the IC50 under setting [1] came out at 16.5 nM.

In the case of `C[C@@H]1COCCN1c1cc(-c2ccn(CCO)n2)c2ccnc(-c3ccn[nH]3)c2n1` [Example 160, 2-(3-{2-[(3R)-3-methylmorpholin-4-yl]-8-(1H-pyrazol-5-yl)-1,7-naphthyridin-4-yl}-1H-pyrazol-1-yl)ethanol], the IC50 under setting [1] was 37.2 nM.

For `C[C@@H]1COCCN1c1cc(-c2ccn(CC(C)(C)O)n2)c2ccnc(-c3ccn[nH]3)c2n1` [Example 161, 2-methyl-1-(3-{2-[(3R)-3-methylmorpholin-4-yl]-8-(1H-pyrazol-5-yl)-1,7-naphthyridin-4-yl}-1H-pyrazol-1-yl)propan-2-ol], the IC50 under setting [1] came to 62.6 nM.

Turning to `C[C@@H]1CN(c2cc(N3CCOCC3)nc3c(-c4ccn[nH]4)nccc23)CCO1` [Example 162, 4-[(2R)-2-methylmorpholin-4-yl]-2-(morpholin-4-yl)-8-(1H-pyrazol-5-yl)-1,7-naphthyridine], the concentration for half-maximal inhibition (IC50) under setting [1] came to 100 nM.

Consider `C[C@@H]1COCCN1c1cc(-c2ccc(F)cn2)c2ccnc(-c3ccn[nH]3)c2n1` [Example 163, 4-(5-fluoropyridin-2-yl)-2-[(3R)-3-methylmorpholin-4-yl]-8-(1H-pyrazol-5-yl)-1,7-naphthyridine], for which the IC50 under setting [1] was 107 nM.

With `Cc1cccc(-c2cc(N3CCOC[C@H]3C)nc3c(-c4ccn[nH]4)nccc23)n1` [Example 164, 2-[(3R)-3-methylmorpholin-4-yl]-4-(6-methylpyridin-2-yl)-8-(1H-pyrazol-5-yl)-1,7-naphthyridine], the half-inhibitory concentration (IC50) under setting [1] was determined as 161 nM.

On to `Cc1cccnc1-c1cc(N2CCOC[C@H]2C)nc2c(-c3ccn[nH]3)nccc12` [Example 165, 2-[(3R)-3-methylmorpholin-4-yl]-4-(3-methylpyridin-2-yl)-8-(1H-pyrazol-5-yl)-1,7-naphthyridine], for which the IC50 under setting [1] is 224 nM.

`CC(=O)Nc1ccccc1-c1cc(N2CCOC[C@H]2C)nc2c(-c3ccn[nH]3)nccc12` [Example 166, N-(2-{2-[(3R)-3-methylmorpholin-4-yl]-8-(1H-pyrazol-5-yl)-1,7-naphthyridin-4-yl}phenyl)acetamide]: the 50% inhibitory concentration (IC50) under setting [1] is 365 nM.
